Data published in patent EP2948433B1, “ATGLISTATIN AS LIPASE INHIBITOR” (Technische Universität Graz, priority 2013, dated 2014).

How the values were obtained:
[1] = Tissue TG content after oral gavage in fasted mice; assay type: in vivo, C57BI6 mice
Protocol: Animals. Mice (C57BI/6J) were maintained on a regular light-dark cycle (14 hours light, 10 hours dark) and kept on a standard laboratory chow diet (4.5% wt/wt fat, Sniff GMBH Germany). Maintenance, handling, and tissue collection from mice has been approved by the Austrian Federal Ministry of Science and Research Education and by the ethics committee of the University of Graz. Atglistatin was orally administrated by gavage of 200 µl olive oil containing Atglistatin.
Determination of tissue TG content. For tissue collection mice were euthanized by cervical dislocation. Subsequently, tissues were excised and snap frozen. After homogenisation in buffer A without DTT, TG was measured using TG reagent (Thermo Electron Corp., Victoria, Australia).
Table 1. Inhibition of lipolysis in vivo. C57BI6 mice were fasted overnight and received an oral gavage containing 200 µmol/kg Atglistatin dissolved in olive oil, or olive oil as control. After 8 h blood was taken retroorbitally and mice were sacrificed. (A) Plasma parameters were measured using commercial kits. (B) Tissue triglyceride (TG) and protein levels were determined in whole tissue lysates and are presented as TG (nmol) per protein (mg). Data are presented as mean + S.D. (*, p < 0.05 **, p < 0.01; ***, p < 0.001). n = 7

murine HSL = target: T1, murine HSL (Mus musculus, UniProt P54310); test: HSL activity, overexpressed in COS-7 lysates, triolein substrate; assay type: biochemical; details: Fig. 2C
T1 construct: His-tag (vector pcDNA4/HisMax); made in house; host or cells: COS-7 cells, transient transfection, 1,000 x g lysate
T1 sequence (P54310 1-759): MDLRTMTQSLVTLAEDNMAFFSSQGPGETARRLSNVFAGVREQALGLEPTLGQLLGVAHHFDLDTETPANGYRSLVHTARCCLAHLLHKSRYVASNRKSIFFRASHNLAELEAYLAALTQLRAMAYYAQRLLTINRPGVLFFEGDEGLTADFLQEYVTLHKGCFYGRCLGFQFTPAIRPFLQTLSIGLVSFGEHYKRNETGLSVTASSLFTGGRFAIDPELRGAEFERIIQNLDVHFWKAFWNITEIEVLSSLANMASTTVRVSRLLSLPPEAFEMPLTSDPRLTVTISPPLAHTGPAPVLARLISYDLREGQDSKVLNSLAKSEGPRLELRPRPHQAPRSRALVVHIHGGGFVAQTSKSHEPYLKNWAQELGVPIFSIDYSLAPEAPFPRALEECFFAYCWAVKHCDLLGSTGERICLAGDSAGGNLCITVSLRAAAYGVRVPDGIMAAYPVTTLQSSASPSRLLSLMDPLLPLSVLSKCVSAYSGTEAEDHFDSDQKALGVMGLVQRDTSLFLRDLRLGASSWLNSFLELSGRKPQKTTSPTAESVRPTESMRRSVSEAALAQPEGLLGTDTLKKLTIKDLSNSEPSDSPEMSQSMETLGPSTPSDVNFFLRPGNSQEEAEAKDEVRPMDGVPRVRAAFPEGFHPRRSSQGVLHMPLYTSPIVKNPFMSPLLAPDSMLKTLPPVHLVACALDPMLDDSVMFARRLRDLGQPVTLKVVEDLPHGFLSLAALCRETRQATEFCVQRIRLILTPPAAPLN
Protocol: • Figure 1. Structure of compounds 1 to 3 (reference) and compound 4 (atglistatin) and effect on ATGL activity. For determination of lipase activity, lysates of E. coli overexpressing recombinant strep-tagged ATGL and CGI-58 were incubated with a substrate containing radiolabeled [9,10-3H(N)]-triolein. Subsequently, FA were extracted and quantified by liquid scintillation counting. Lysates of cells expressing empty vector were set as blank. Inhibitors were solubilized in DMSO and added at the indicated concentrations. DMSO alone was used as negative control. (A) Structure and IC50 values of compounds 1-4. (B) Dose-dependent inhibition of ATGL in the presence of compound 3 and 4. […] (C) Lineweaver-Burk plots for kinetic analysis of ATGL inhibition. Experiments were performed at varying concentrations of substrate (0.05 - 3 mM) in presence and absence of compound 4 (Atglistatin). […] Lipase activity of ATGL, HSL, lipoprotein lipase, and pancreatic lipase was determined using triolein as substrate. MGL activity was detected in the presence of rac-(1,3)-monooleoylglycerol as substrate. […] The release of FA (A) and glycerol (B) in the media was determined using commercial kits. […] At the indicated timepoints blood was taken retroorbitally and plasma parameters were measured using commercial kits. […] 8 h after gavage blood was taken retroorbitally and plasma parameters were measured using commercial kits. […]

SMILES: CN(C)C(=O)Nc1cccc(-c2ccc(N(C)C)cc2)c1 [Atglistatin, atglistatin]
- Tissue triglyceride (TG), skeletal muscle ([1]; 200 µmol/kg oral gavage, after 8 h, mean ± S.D., n = 7): 99 ± 13 nmol TG /mg protein
- accumulation of TG in cardiac muscle and other tissues ([1]; mouse, in vivo): did not promote the accumulation of TG
- effect on HSL activity (murine HSL): only minor effects
